Data set [1] can be described thus: Half-life using mouse brain homogenate. The format is ADME.
For data set [2], the species on record is Mus musculus. As to the kind of experiment: (§1) Effective dose required for producing 50% of the maximum analeptic response was determined. The format is functional.
Data set [3] is filed under the species Mus musculus. Described as §1. The format is functional, organism-based.

In ChEMBL document CHEMBL1136637, “Prodrugs to enhance central nervous system effects of the TRH-like peptide pGlu-Glu-Pro-NH2” (Bioorg Med Chem Lett, 2003) one finds half-life, ED50 and EC50 data, which are given here for six compounds.

Square brackets hold non-standard residues; d marks the D form. Peptide text beside a SMILES is read from it. * marks the point of attachment. ξ: configuration not given here. pGlu = O=C1CC[C@@H](C(=O)O)N1; ξE = NC(CCC(=O)O)C(=O)O; OcHex = C1CCC(O*)CC1; OBn = c1ccc(CO*)cc1; OtBu = CC(C)(C)O*

Broadly, the half-life is how long it takes for the measured level to halve. The low end stands for rapid decline, the high end for slow decline. The ED50 is the midpoint of the dose-response relation.

In data set [1], `NC(=O)[C@@H]1CCCN1C(=O)C(CCC(=O)OC1CCCCC1)NC(=O)[C@@H]1CCC(=O)N1` (some centres not stated) ([pGlu]-[ξE](OcHex)-Pro-NH2) yielded a half-life of 25 min.
`CCCCCCOC(=O)CCC(NC(=O)[C@@H]1CCC(=O)N1)C(=O)N1CCC[C@H]1C(N)=O` (some centres not stated): in the data set filed under Mus musculus [2], the ED50 is 2.4 µmol/kg. The compound further displayed a half-life in data set [1] of 22 min.
Take `NC(=O)[C@@H]1CCCN1C(=O)C(CCC(=O)OCc1ccccc1)NC(=O)[C@@H]1CCC(=O)N1` (some centres not stated) ([pGlu]-[ξE](OBn)-Pro-NH2): in data set [1], the half-life was more than 120 min.
In turn, `NC(=O)[C@@H]1CCCN1C(=O)[C@H](CCC(=O)O)NC(=O)[C@@H]1CCC(=O)N1` ([pGlu]-Glu-Pro-NH2) displayed an EC50 in the data set filed under Mus musculus [3] of 23.2 µM/kg.
The compound `COC(=O)CCC(NC(=O)[C@@H]1CCC(=O)N1)C(=O)N1CCC[C@H]1C(N)=O` (some centres not stated) ([pGlu]-[ξE](OMe)-Pro-NH2) came in with a half-life in data set [1] of 20 min.
Same read-out and setting: with `CC(C)(C)OC(=O)CCC(NC(=O)[C@@H]1CCC(=O)N1)C(=O)N1CCC[C@H]1C(N)=O` (some centres not stated) ([pGlu]-[ξE](OtBu)-Pro-NH2) the figure was 70 min.
